Data as given in patent US10759796B2, “CXCR4 inhibitors and uses thereof” (X4 Pharmaceuticals, Inc., priority 2016, dated 2020).

System: not listed separately
Test: in vitro
Conditions: human, Caco-2, pH 7.4
Method: Example 28: Caco-2 Permeability Assay
The goal of this assay was to evaluate the intestinal absorption potential of drug candidates using Caco-2 cell lines.
1. Prewarm Prewarm HBSS Buffer in 37° C. water bath
2. Sonicate Take compounds from −20° C., sonicate for a few minutes (no less than 1 minute)
HBSS buffer with 0.3% DMSO and 5 μM LY: add 150 μL DMSO and 50 μL LY (5 mM) into 50 ml HBSS buffer (pH 7.4).
HBSS buffer with 0.1% DMSO and 5 μM LY: add 50 μL DMSO and 50 μL LY (5 mM) into 50 mL HBSS buffer (pH 7.4).
HBSS buffer with 0.3% DMSO: add 150 μL DMSO into 50 ml HBSS buffer (pH 7.4).
HBSS buffer with 0.1% DMSO: add 50 μL DMSO into 50 ml HBSS buffer (pH 7.4).
Receiver Solution Buffer:
Prepare HBSS buffer with 0.4% DMSO: add 200 μL DMSO into 50 ml HBSS buffer (pH 7.4).
Prepare HBSS buffer with 0.4% DMSO and 5 μM LY: add 200 μL DMSO and 50 μL LY (5 mM) into 50 ml HBSS buffer (pH 7.4).
4. Measure TEER Take cell culture plate out of incubator, wash the cell monolayers with HBSS buffer, and then measure TEER values at Rm temperature. 5. Centrifuge Centrifuge the compound solution (from step 3) at 4000 rpm for 5 min before loading to donor chambers. 6. Dosing Add solution based on the volumes listed in the following table (make sure to take extra 100 μL of donor sample for TO as Backup).
7. Apical LYT0 Samples To determine LY concentration in the apical chember, take 100 μL sample from apical chambers into an opaque plate for LYT0. 8. Prewarm Prewarm apical and basolateral plates at 37° C. for about 5 min, then begin transport by placing the apical plate onto basolateral plate. 9. Incubation Keep the plates in incubator at 37° C. for 90 min. 10. Standard Curve Preparation
For 300 μM compound solution, add 6 μL of compound stock solution into 192 μL of MeOH/H2O (1:1).
Prepare Working Solution in MeOH/H2O (1:1)
3 μL (20×)+57 μL of 0.4% DMSO HBSS+60 μL ACN with IS (Osalmid or Imipramine) - - - 120 μL (1×)
11. Transport Termination Separate the apical plate from the basolateral plate after 90-min incubation.
12. Measure LY Take 100 μL samples from basolateral plate to an opaque plate as LYT90.
13. Measure LY concentrations for LYT0 and LYT90 by Fluorometer (at excitation of 485 nm/emission of 535 nm).
Study details: Test concentration 10 μM
Test systems: Caco-2/HBSS solution
Incubation conditions: 0, 90 min at 37° C.
Sample size: Duplicates (n=2)
Bioanalytical method: LC-MS/MS
For Millicell-24 Cell Culture Plates: surface area of the membrane=0.7 cm^2, VA=0.8 mL (A-to-B) or 0.4 mL (B-to-A)
1. Papp values were calculated based on calculated concentrations.
The compound numbers correspond to the compound numbers in Table 1.
CN1[C@@H](c2cn3c(N4CCNC5(CC5)C4)cccc3n2)CCC[C@H]1c1ncccc1Cl [Compound I-159] gave a Papp A→B at 90 min, 10 μM of 10 to 30 ×10⁻⁶ cm/s, a Papp B→A at 90 min, 10 μM of 10 to 30 ×10⁻⁶ cm/s and an efflux ratio at 90 min, 10 μM of 0.1 to 10. With Cc1cccnc1[C@@H]1CCC[C@H](c2nc3ccccn3c2[C@H](O)C2CCN(C)CC2)N1C [Compound I-55] the Papp A→B at 90 min, 10 μM was 0.1 to 10 ×10⁻⁶ cm/s, the Papp B→A at 90 min, 10 μM was 0.1 to 10 ×10⁻⁶ cm/s and the efflux ratio at 90 min, 10 μM was 0.1 to 10. Work on Cc1cccnc1[C@@H]1CCC[C@H](c2nc3ccccn3c2C=C2CCN(C)CC2)N1C [Compound I-83] yielded a Papp A→B at 90 min, 10 μM of 0.1 to 10 ×10⁻⁶ cm/s, a Papp B→A at 90 min, 10 μM of 10 to 30 ×10⁻⁶ cm/s and an efflux ratio at 90 min, 10 μM of 10 to 30. Work on CC(C)N1CCN(c2cccc3nc([C@H]4CCC[C@@H](c5ncccc5Cl)N4C)c(Cl)n23)CC1 [Compound I-123] yielded a Papp A→B at 90 min, 10 μM of 0.1 to 10 ×10⁻⁶ cm/s, a Papp B→A at 90 min, 10 μM of 0.1 to 10 ×10⁻⁶ cm/s and an efflux ratio at 90 min, 10 μM of 0.1 to 10. Work on CCOCc1c([C@H]2CCC[C@@H](c3ncccc3C)N2C)nc2cccc(N3CCN(C4CC4)CC3)n12 [Compound I-58] yielded a Papp A→B at 90 min, 10 μM of 10 to 30 ×10⁻⁶ cm/s, a Papp B→A at 90 min, 10 μM of 10 to 30 ×10⁻⁶ cm/s and an efflux ratio at 90 min, 10 μM of 0.1 to 10. CNCCCc1c([C@@H]2CCC[C@H](c3ncccc3C)N2C)nc2ccccn12 (stereo in doubt) [Compound I-27] gave a Papp A→B at 90 min, 10 μM of 0.1 to 10 ×10⁻⁶ cm/s, a Papp B→A at 90 min, 10 μM of 0.1 to 10 ×10⁻⁶ cm/s and an efflux ratio at 90 min, 10 μM of 10 to 30. Cc1cccnc1[C@H]1CCC[C@@H](c2nc3ccccn3c2-c2ccncc2)N1 [Compound I-207] gave a Papp A→B at 90 min, 10 μM of 10 to 30 ×10⁻⁶ cm/s, a Papp B→A at 90 min, 10 μM of over 30 ×10⁻⁶ cm/s and an efflux ratio at 90 min, 10 μM of 0.1 to 10. In the case of CN(C)C1CCN(c2cccc3nc([C@H]4CCC[C@@H](c5ncccc5Cl)N4C)c(Cl)n23)CC1 [Compound I-132], the Papp A→B at 90 min, 10 μM is reported as 0.1 to 10 ×10⁻⁶ cm/s, the Papp B→A at 90 min, 10 μM is reported as 0.1 to 10 ×10⁻⁶ cm/s and the efflux ratio at 90 min, 10 μM is reported as 0.1 to 10. In the case of Cc1cccnc1[C@@H]1CCC[C@H](c2cn3c(N4CC5CCC(C4)N5)cccc3n2)N1C [Compound I-109], the Papp A→B at 90 min, 10 μM is reported as 0.1 to 10 ×10⁻⁶ cm/s, the Papp B→A at 90 min, 10 μM is reported as 10 to 30 ×10⁻⁶ cm/s and the efflux ratio at 90 min, 10 μM is reported as over 30. Compound CCOCc1c([C@H]2CCC[C@@H](c3ncccc3C)N2C)nc2cccc(N3CCN(CC)CC3)n12 [Compound I-56] has a Papp A→B at 90 min, 10 μM of 0.1 to 10 ×10⁻⁶ cm/s, a Papp B→A at 90 min, 10 μM of 10 to 30 ×10⁻⁶ cm/s and an efflux ratio at 90 min, 10 μM of 0.1 to 10. Cc1cccnc1[C@@H]1CCC[C@H](c2cn3c(N4CCN(C)CC4)cccc3n2)N1CCO [Compound I-87] gave a Papp A→B at 90 min, 10 μM of 0.1 to 10 ×10⁻⁶ cm/s, a Papp B→A at 90 min, 10 μM of 10 to 30 ×10⁻⁶ cm/s and an efflux ratio at 90 min, 10 μM of 10 to 30. CC(C)c1cccnc1[C@@H]1CCC[C@H](c2cn3c(N4CCN(C)CC4)cccc3n2)N1C [Compound I-51] showed a Papp A→B at 90 min, 10 μM of 0.1 to 10 ×10⁻⁶ cm/s, a Papp B→A at 90 min, 10 μM of 10 to 30 ×10⁻⁶ cm/s and an efflux ratio at 90 min, 10 μM of 0.1 to 10.

Target: CXCR-4 transfected U87 cell line (U87.CXCR4) (Homo sapiens (Human), UniProt P61073)
Sequence (P61073 whole entry): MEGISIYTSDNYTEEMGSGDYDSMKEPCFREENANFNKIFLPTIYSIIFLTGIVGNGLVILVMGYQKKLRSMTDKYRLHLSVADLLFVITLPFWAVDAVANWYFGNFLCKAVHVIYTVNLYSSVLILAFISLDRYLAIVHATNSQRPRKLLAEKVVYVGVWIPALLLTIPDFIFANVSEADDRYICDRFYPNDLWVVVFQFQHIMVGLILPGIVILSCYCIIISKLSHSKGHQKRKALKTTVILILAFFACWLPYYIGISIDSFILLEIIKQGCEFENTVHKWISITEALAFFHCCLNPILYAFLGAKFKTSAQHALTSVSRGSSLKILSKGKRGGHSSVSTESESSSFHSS
Test: Intracellular CXCL-12-induced calcium mobilization assay (FLIPR)
Assay type: cell-based
Conditions: U87.CXCR4 cells, CXCL-12 25-50 ng/mL; read-out: IC50 CXCL-12 Ca2+ flux U87.CXCR4+
Method: Example 28: REGA Screening Assay
Intracellular CXCL-12-Induced Calcium Mobilization Assay
Intracellular calcium mobilization induced by chemokines or chemokine-derived peptides were evaluated using a calcium responsive fluorescent probe and a FLIPR system. The CXCR-4 transfected U87 cell line (U87.CXCR4) cells were seeded in gelatine-coated black-wall 96-well plates at 20,000 cells per well and incubated for 12 hours. Cells were then loaded with the fluorescent calcium probe Fluo-2 acetoxymethyl at 4 μM final concentration in assay buffer (Hanks' balanced salt solution with 20 mM HEPES buffer and 0.2% bovine serum albumin, pH 7.4) for 45 min at 37° C. The intracellular calcium mobilization induced by the CXCL-12 (25-50 ng/mL) was then measured at 37° C. by monitoring the fluorescence as a function of time in all the wells simultaneously using a fluorometric imaging plate reader (FLIPR Tetra, Molecular Devices).
CN1[C@@H](c2cn3c(N4CCNC5(CC5)C4)cccc3n2)CCC[C@H]1c1ncccc1Cl [Compound I-159] showed an IC50 of 0.01 to 100 nM. For Cc1cccnc1[C@@H]1CCC[C@H](c2nc3ccccn3c2[C@H](O)C2CCN(C)CC2)N1C [Compound I-55], the IC50 was at least 1000 nM. For Cc1cccnc1[C@@H]1CCC[C@H](c2nc3ccccn3c2C=C2CCN(C)CC2)N1C [Compound I-83], the IC50 was 100 to 1000 nM. Compound CC(C)N1CCN(c2cccc3nc([C@H]4CCC[C@@H](c5ncccc5Cl)N4C)c(Cl)n23)CC1 [Compound I-123] has an IC50 of at least 1000 nM. In the case of CCOCc1c([C@H]2CCC[C@@H](c3ncccc3C)N2C)nc2cccc(N3CCN(C4CC4)CC3)n12 [Compound I-58], the IC50 is reported as at least 1000 nM. With CNCCCc1c([C@@H]2CCC[C@H](c3ncccc3C)N2C)nc2ccccn12 (stereo in doubt) [Compound I-27] the IC50 was 0.01 to 100 nM. For Cc1cccnc1[C@H]1CCC[C@@H](c2nc3ccccn3c2-c2ccncc2)N1 [Compound I-207], the IC50 was at least 1000 nM. Compound CN(C)C1CCN(c2cccc3nc([C@H]4CCC[C@@H](c5ncccc5Cl)N4C)c(Cl)n23)CC1 [Compound I-132] has an IC50 of 100 to 1000 nM. With Cc1cccnc1[C@@H]1CCC[C@H](c2cn3c(N4CC5CCC(C4)N5)cccc3n2)N1C [Compound I-109] the IC50 was 100 to 1000 nM. Compound CCOCc1c([C@H]2CCC[C@@H](c3ncccc3C)N2C)nc2cccc(N3CCN(CC)CC3)n12 [Compound I-56] has an IC50 of 0.01 to 100 nM. Compound Cc1cccnc1[C@@H]1CCC[C@H](c2cn3c(N4CCN(C)CC4)cccc3n2)N1CCO [Compound I-87] has an IC50 of 0.01 to 100 nM. With CC(C)c1cccnc1[C@@H]1CCC[C@H](c2cn3c(N4CCN(C)CC4)cccc3n2)N1C [Compound I-51] the IC50 was 100 to 1000 nM.

Target: Jurkat cells expressing CXCR4 (Homo sapiens (Human), UniProt P61073)
Sequence (P61073 whole entry): as above
Test: Chemokine (CXCL12-AF647) binding inhibition assay
Conditions: CXCL12-AF647 25 ng/mL, read-out: IC50 CXCL-12 binding Jurkat
Method: Chemokine (CXCL12-AF647) Binding Inhibition Assay
Jurkat cells expressing CXCR4 were washed once with assay buffer (Hanks' balanced salt solution with 20 mM HEPES buffer and 0.2% bovine serum albumin, pH 7.4) and then incubated for 15 min at room temperature with the test compounds diluted in assay buffer at dose-dependent concentrations. Subsequently, CXCL12-AF647 (25 ng/mL) was added to the compound-incubated cells. The cells were incubated for 30 min at room temperature. Thereafter, the cells were washed twice in assay buffer, fixed in 1% paraformaldehyde in PBS, and analyzed on the FL4 channel of a FACSCalibur flow cytometer equipped with a 635-nm red diode laser (Becton Dickinson, San Jose, Calif., USA).
The percentages of inhibition of CXCL12-AF647 binding were calculated according to the formula: [1−((MFI−MFINC)/(MFIPC−MFINC))]×100 where MFI is the mean fluorescence intensity of the cells incubated with CXCL12-AF647 in the presence of the inhibitor, MFINC is the mean fluorescence intensity measured in the negative control (i.e., autofluorescence of unlabeled cells), and MFIPC is the mean fluorescence intensity of the positive control (i.e., cells exposed to CXCL12-AF647 alone).
CN1[C@@H](c2cn3c(N4CCNC5(CC5)C4)cccc3n2)CCC[C@H]1c1ncccc1Cl [Compound I-159] showed an IC50 of 0.01 to 100 nM. With Cc1cccnc1[C@@H]1CCC[C@H](c2nc3ccccn3c2[C@H](O)C2CCN(C)CC2)N1C [Compound I-55] the IC50 was 0.01 to 100 nM. For Cc1cccnc1[C@@H]1CCC[C@H](c2nc3ccccn3c2C=C2CCN(C)CC2)N1C [Compound I-83], the IC50 was 0.01 to 100 nM. For CC(C)N1CCN(c2cccc3nc([C@H]4CCC[C@@H](c5ncccc5Cl)N4C)c(Cl)n23)CC1 [Compound I-123], the IC50 was 0.01 to 100 nM. Work on CCOCc1c([C@H]2CCC[C@@H](c3ncccc3C)N2C)nc2cccc(N3CCN(C4CC4)CC3)n12 [Compound I-58] yielded an IC50 of 100 to 1000 nM. CNCCCc1c([C@@H]2CCC[C@H](c3ncccc3C)N2C)nc2ccccn12 (stereo in doubt) [Compound I-27] gave an IC50 of 0.01 to 100 nM. With Cc1cccnc1[C@H]1CCC[C@@H](c2nc3ccccn3c2-c2ccncc2)N1 [Compound I-207] the IC50 was at least 1000 nM. For CN(C)C1CCN(c2cccc3nc([C@H]4CCC[C@@H](c5ncccc5Cl)N4C)c(Cl)n23)CC1 [Compound I-132], the IC50 was 0.01 to 100 nM. Cc1cccnc1[C@@H]1CCC[C@H](c2cn3c(N4CC5CCC(C4)N5)cccc3n2)N1C [Compound I-109] showed an IC50 of 0.01 to 100 nM. CCOCc1c([C@H]2CCC[C@@H](c3ncccc3C)N2C)nc2cccc(N3CCN(CC)CC3)n12 [Compound I-56] showed an IC50 of 0.01 to 100 nM. In the case of Cc1cccnc1[C@@H]1CCC[C@H](c2cn3c(N4CCN(C)CC4)cccc3n2)N1CCO [Compound I-87], the IC50 is reported as 0.01 to 100 nM. Compound CC(C)c1cccnc1[C@@H]1CCC[C@H](c2cn3c(N4CCN(C)CC4)cccc3n2)N1C [Compound I-51] has an IC50 of 0.01 to 100 nM.
